Source: ChEMBL document CHEMBL1772974, “Optimization of potent, selective, and orally bioavailable pyrrolodinopyrimidine-containing inhibitors of heat shock protein 90. Identification of development candidate …” (J Med Chem, 2011)
≈ marks a conversion by molar mass, not a printed value. Each block holds one compound with its values, some of them ahead of it.

How the values were obtained:
in vitro = settings: human, Caco-2
[1] = Solubility of the compound; assay type: physicochemical
[2] = Volume of distribution at steady state in Beagle dog at 0.5 mg/kg, iv; assay type: ADME, organism-based, Canis lupus familiaris; parameters: dose 0.5 mg/kg, route intravenous; settings: in vivo, read-out: Vdss
[3] = Oral bioavailability in Beagle dog at 0.5 mg/kg administered as solution in 40% PEG400 in saline; assay type: ADME, organism-based, Canis lupus familiaris; settings: in vivo
[4] = Oral bioavailability in Han Wistar rat at 10 mg/kg administered as solution in 40% PEG400 in saline; assay type: ADME, organism-based; settings: in vivo
[5] = Permeability from basolateral to apical side of MDCK cells; assay type: ADME, cell-based, Canis lupus familiaris; settings: dog, read-out: permeability
[6] = Oral bioavailability in Han Wistar rat at 10 mg/kg administered as suspension in 0.5% methylcellulose; assay type: ADME, organism-based; settings: in vivo
[7] = Permeability from apical to basolateral side of MDCK cells; assay type: ADME, cell-based, Canis lupus familiaris; settings: dog, read-out: permeability
[8] = Oral bioavailability in Beagle dog at 0.5 mg/kg administered as suspension in 0.5% methylcellulose; assay type: ADME, organism-based, Canis lupus familiaris; settings: in vivo
[9] = Volume of distribution at steady state in Han Wistar rat at […], iv; assay type: ADME, organism-based; parameters: dose 2.5 mg/kg, route intravenous; settings: in vivo, read-out: Vdss
[10] = Toxicity in human A2058 cells xenografted po dosed nu/nu athymic mouse; assay type: organism-based; settings: in vivo

SMILES: Nc1nc2c(c(-c3c(Cl)cc(Cl)cc3OCCn3cccn3)n1)CN(C(=O)NC1CCC1)C2
- Papp A→B (in vitro): 4.7 ×10⁻⁶ cm/s

SMILES: Nc1nc2c(c(-c3c(Cl)cc(Cl)cc3OCCn3cccn3)n1)CN(C(=O)NC1CC(F)(F)C1)C2
- Papp A→B (in vitro): 1.5 ×10⁻⁶ cm/s

SMILES: Nc1nc2c(c(-c3c(Cl)cc(Cl)cc3OCCn3cccn3)n1)CN(C(=O)NC13CC(C1)C3)C2
- Papp A→B (in vitro): 5 ×10⁻⁶ cm/s

SMILES: Nc1nc2c(c(-c3c(Cl)cc(Cl)cc3OCCn3cccn3)n1)CN(C(=O)NCC(F)F)C2
- Papp A→B (in vitro): 1.2 ×10⁻⁶ cm/s

SMILES: CO[C@H]1/C=C\C=C(/C)C(=O)NC2=CC(=O)C(NCCN(C)C)=C(C[C@@H](C)C[C@H](OC)[C@H](O)[C@@H](C)/C=C(\C)[C@@H]1OC(N)=O)C2=O [ALVESPIMYCIN]
- MTD [10]: 10 mg/kg

Now from value to compound:

- Papp A→B (in vitro): 0.5 ×10⁻⁶ cm/s
SMILES: Nc1nc2c(c(-c3c(Cl)cc(Cl)cc3OCCn3cccn3)n1)CN(C(=O)NC1CC1)C2

- Papp A→B (in vitro): 0.96 ×10⁻⁶ cm/s
SMILES: Nc1nc2c(c(-c3c(Cl)cc(Cl)cc3OCCn3cccn3)n1)CN(C(=O)NCC(F)(F)F)C2

- solubility [1]: 200 µM (≈ 102 µg/mL)
- Vd [2]: 8 L/kg
- bioavailability [3]: 63%
- bioavailability [4]: 19%
- Papp B→A [5]: 11 ×10⁻⁶ cm/s
- bioavailability [6]: 15%
- Papp A→B [7]: 2.4 ×10⁻⁶ cm/s
- bioavailability [8]: 58%
- Vd [9]: 9.6 L/kg
SMILES: Cc1cc(Cl)cc(OCCn2cc(F)cn2)c1-c1nc(N)nc2c1CN(C(=O)NCC(C)(F)F)C2
